Assay results: PubChem BioAssay (NCI)
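All cell lines were grown in 96-well plates and treated with compound for 48 hours. The concentration for full growth arrest is given as TGI.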

Assays:
Assay in all cases: growth of human tumour cells (NCI), 48 h
CAKI-1 renal = test system: CAKI-1 renal
EKVX NSCLC = test system: EKVX NSCLC
HCT-15 colon = test system: HCT-15 colon
HT29 colon = test system: HT29 colon
KM12 colon = test system: KM12 colon
LOX IMVI melanoma = test system: LOX IMVI melanoma
MCF7 breast = test system: MCF7 breast
OVCAR-4 ovarian = test system: OVCAR-4 ovarian
PC-3 prostate = test system: PC-3 prostate
SR leukemia = test system: SR leukemia
SW-620 colon = test system: SW-620 colon

| SMILES | TGI (CAKI-1 renal) | TGI (EKVX NSCLC) | TGI (HCT-15 colon) | TGI (HT29 colon) | TGI (KM12 colon) | TGI (LOX IMVI melanoma) | TGI (MCF7 breast) | TGI (OVCAR-4 ovarian) | TGI (PC-3 prostate) | TGI (SR leukemia) | TGI (SW-620 colon) |
| --- | --- | --- | --- | --- | --- | --- | --- | --- | --- | --- | --- |
| NC(N)=Nc1ccc(CC(N)C(=O)O)cc1 (configuration not stated) | > 12.5 µM | > 12.5 µM | > 12.5 µM | > 12.5 µM | > 12.5 µM | > 12.5 µM | > 12.5 µM | > 12.5 µM | > 12.5 µM | > 12.5 µM | > 12.5 µM |
| O=C1CSC(c2cccc([N+](=O)[O-])c2)N1c1ccc(-n2c(-c3ccccc3)nc3ccccc3c2=O)cc1 (configuration not stated) | > 100 µM | > 100 µM | > 100 µM | > 100 µM | > 100 µM | > 100 µM | > 100 µM | > 100 µM | > 100 µM | > 100 µM | > 100 µM |
| O=[N+]([O-])c1cc(-c2nc(-c3ccccc3)c(-c3ccccc3)[nH]2)c(O)c([N+](=O)[O-])c1 | 77.6 µM | 58.9 µM | 33.6 µM | 35.8 µM | 65.1 µM | 49.1 µM | 72.9 µM | > 100 µM | 44.3 µM | 58.7 µM | 90.8 µM |
| O=C1CC(c2ccccc2)n2cccc21 (configuration not stated) | > 100 µM | > 100 µM | > 100 µM | > 100 µM | > 100 µM | > 100 µM | > 100 µM | > 100 µM | > 100 µM | > 100 µM | > 100 µM |
| CCCCn1c2c(n(CCCC)c1=S)-c1c(n(CCCC)c(=S)n1CCCC)SSc1c(n(CCCC)c(=S)n1CCCC)-c1c(n(CCCC)c(=S)n1CCCC)SSc1c(n(CCCC)c(=S)n1CCCC)-c1c(n(CCCC)c(=S)n1CCCC)SS2 | > 40.2 µM | > 50 µM | 30.4 µM | > 46.6 µM | > 50 µM | 13.3 µM | 48 µM | > 19.7 µM | 18.9 µM | > 50 µM | > 14.8 µM |
| CC1=C(C)Cc2c(O)ccc(O)c2C1 | 34.1 µM | 29.5 µM | 33.1 µM | 30.5 µM | > 100 µM | 46.7 µM | 51.3 µM |  | 32.1 µM | 38.8 µM | 37.6 µM |
| O=C1Oc2cc(O)cc(/C=C/c3ccc(O)cc3)c2[C@@]12c1c(O)cc(O)cc1OC2c1cccc(O)c1 (some centres not stated) | > 100 µM | > 100 µM | > 100 µM | 65 µM | > 100 µM | 75.3 µM | > 100 µM | > 100 µM | > 100 µM | > 100 µM |  |
| COC(=O)C1(C)C=CC(=O)C2(C)C1C(O)C1OC3CC(c4ccoc4)C(C)=C3C1(C)C2CC(=O)O (configuration not stated) | > 100 µM | > 100 µM | > 100 µM |  | > 100 µM | > 100 µM | > 100 µM | > 100 µM | > 100 µM |  | > 100 µM |
| O=C(NNC(=S)NC1CCCCC1)c1csc(NC(=S)NC2CCCCC2)n1 | 24.2 µM | > 100 µM | 14.5 µM | > 100 µM | 87.6 µM | 18.9 µM | > 100 µM |  | 24.9 µM | > 100 µM | 19.5 µM |
| COc1cc(CNNC(N)=S)cc(OC)c1OC | > 100 µM | > 100 µM | > 100 µM | > 100 µM | > 100 µM | > 100 µM | > 100 µM |  | > 100 µM | > 100 µM | > 100 µM |
| Cc1cn(CC2=NCC(C)N2)c(=O)[nH]c1=O (configuration not stated) |  | > 100 µM | > 100 µM | > 100 µM |  | > 100 µM | > 100 µM |  | > 100 µM | > 100 µM | > 100 µM |
| O=C(O)CN1C(=O)C(Cc2ccc(O)cc2)N=C(c2cccc(O)c2)c2ccccc21 (configuration not stated) |  | > 100 µM | > 100 µM | > 100 µM | > 100 µM | > 100 µM | > 100 µM | > 100 µM | > 100 µM | > 100 µM | > 100 µM |
| C=CCc1cccc2cc(C(=O)Nc3ccccn3)c(=N)oc12 | > 100 µM |  | > 100 µM | > 100 µM | > 100 µM | > 100 µM | > 100 µM | > 100 µM | > 100 µM | > 100 µM | > 100 µM |
| CC1(C)CCC[C@]2(C)[C@H]3[C@H](C#N)c4cc(O)c(O)cc4O[C@@]3(C)CC[C@@H]12 | > 10 µM | > 10 µM | > 10 µM |  | > 10 µM | > 10 µM | > 10 µM | > 10 µM | > 10 µM | > 10 µM | > 10 µM |
